Consider 20 molecules from patent US5554653A, “Inhibitors of HIV protease useful for the treatment of AIDS” (Eli Lilly and Company, priority 1992, dated 1996).

The structures appear in SMILES notation. In brackets after ≈: the same amount, converted by molar mass.

One test has as its target T1, HIV-1 protease (Human immunodeficiency virus type 1 group M subtype B, UniProt P04585).
T1 construct: Purified HIV-1 protease was obtained as described above; made in house; host or cells: E. coli K12 L507/pHP10D (NRRL B-18560)
Put plainly: biochemical. In kind it is biochemical. The note with it: read-out: Fluorescence Assay IC3. As for the experimental part:
C. Preparation of Protease Fraction
A culture of E. coli K12 L507/pHP10D was grown to mid-log phase at 32° C. in LB media containing 12.5 μg/ml tetracycline. The cultivation temperature was quickly elevated to 40° C. to induce gene expression, and the cells were allowed to grow for 2.5 hours at this temperature before the culture was quickly chilled on ice. The cells were centrifuged and the cell pellet was resuspended in 20 mL 50 mmol MES buffer (pH 6.0) containing 1 mmol EDTA, 1 mmol DTT, 1 mmol PMSF and 10% glycerol ("Buffer A"). Cells were lysed by sonication using a Fischer Model 300 Dismembrator and a microtip probe. Following centrifugation at 27,000×g, the supernatant was diluted to a total volume of 60 mL with Buffer A and loaded onto a 2.0×19 cm QAE-Sepharose column (1 mL/min, 4° C.), that had been equilibrated in Buffer A. The column was washed isocratically for 180 min and then eluted with a gradient eluent of 0-1.0M sodium chloride in Buffer A over 120 min. Enzymatic activity was measured by HPLC using the synthetic peptide SQNYPIV as described in Margolin et al., Biochem. Biophys. Res. Commun., 167, 554-560 (1990); the production of the p1 peptide (SQNY) was measured.
The active fractions were combined, made 1.2M in ammonium sulfate, and applied to a 2.0×18 cm hexyl agarose column that had been equilibrated in Buffer A containing 1.2M ammonium sulfate. The sample was loaded at a flow rate of 1 mL/min at 4° C., washed with the equilibration buffer for 240 min (1 mL/min) and then eluted using a reverse linear gradient of 1.2-0M ammonium sulfate in Buffer A for 120 min at the same flow rate. The column was then washed isocratically in Buffer A for 120 min.
The active fractions were combined, concentrated to 10 mL using an Amicon stirred cell with a YM-10 membrane and then applied to a MonoS cation exchange column (1.0×10 cm) that had been equilibrated in Buffer A. The sample was loaded at a flow rate of 1 mL/min at 25° C. After washing isocratically for 30 min, the protease was eluted using a linear gradient of 0-0.45M sodium chloride in Buffer A over 40 min. The column was washed isocratically in Buffer A containing 0.45M sodium chloride for 30 min.
The active fractions were combined and concentrated to 200 μL using an Amicon stirred cell and a YM-10 membrane and then the protease was applied to a Superose 6 size exclusion column equilibrated in Buffer A containing 0.1M sodium chloride.
The purified peptide was labeled with a fluorescent marker at the C-terminal end for use in the Pandex assay. N^α -Biotin-[…]OH SEQ ID NO:3. (1.206 g, 0.936 mmol) was dissolved in 100 mL of 0.1M sodium borate, pH 9.5. Then, a solution of 3 g (7.7 mmol) of fluorescein isothiocyanate in 15 mL dimethyl sulfoxide was added to the reaction mixture in 10 equal portions over two hours. The resulting mixture was allowed to react for one hour after the final addition. The solution was adjusted to pH 3 using 5N hydrochloric acid, resulting in the formation of a precipitate which was removed by centrifugation.
E. Fluorescence HIV-1 Protease Inhibitor Assay
The following buffers and solutions are used in the Fluorescence HIV-1 Protease Inhibitor Assay:
MES-ALB Buffer: 0.05M 4-morpholineethane
Avidin Coated 0.1% solution of Fluoricon
Beads Solution: Avidin Assay Particles
(Avidin conjugated to solid
polystyrene beads, 0.6-0.8
microns in diameter in TBSA
27 IU/mL of purified HIV-1
protease in MES-ALB buffer
(1 IU equals the amount of
enzyme required to hydrolyze
1 μmole of substrate per
To each well of a round bottom, 96-well plate is added 20 μL of the Enzyme Solution followed by 10 μL of the compound to be evaluated in a 20% aqueous dimethylsulfoxide solution. Purified HIV-1 protease was obtained as described above.
With `CC(C)(C)NC(=O)c1ccccc1C[C@@H](O)[C@H](Cc1ccccc1)NC(=O)[C@H](N)CSc1ccccc1` [Example 22B, [2R-(2R*,3S*,6S*)]-N-t-Butyl-2-[2-hydroxy-3-phenylmethyl-4-aza-5-oxo-6-amino-7-phenylthio]heptyl benzamide], the IC3 came to 1 µg/mL.
`CC(C)(C)NC(=O)c1ccccc1C[C@@H](O)[C@H](Cc1ccccc1)NC(=O)[C@@H](CSCc1ccccc1)NC(=O)OC(C)(C)C` [Example 19A, [2R-(2R*, 3S*, 6S*)]-N-t-Butyl-2-[2-hydroxy-3-phenylmethyl-4-aza-5-oxo-6-N (t-butoxycarbonyl)amino-7-benzylthio]heptyl benzamide]: the IC3 came out at 1 µg/mL.

The test is the same for the next values; noted with them: read-out: Fluorescence Assay IC8.
In the case of `CC(C)(C)NC(=O)c1ccccc1C[C@@H](O)[C@H](Cc1ccccc1)NC(=O)[C@H](Cc1ccccc1)NC=O` [Example 40], the IC8 came to 1 µg/mL.
On the same count and under the same terms, to `CC(=O)N[C@@H](CSc1ccccc1)C(=O)N[C@@H](Cc1ccccc1)[C@H](O)Cc1ccccc1C(=O)NC(C)(C)C` [Example 20B, [2R-(2R*,3S*,6R*)]-N-t-Butyl-2-[2-hydroxy-3-phenylmethyl-4-aza-5-oxo-6-N(ethanoyl)amino-7-phenylthio]heptyl benzamide] belongs 1 µg/mL.

The test is the same for the next values; noted with them: read-out: Fluorescence Assay IC30.
As a reminder, the IC30 is the point of the concentration-response curve where the effect stands at 30%. For `CC(C)(C)NC(=O)c1ccccc1C[C@@H](O)[C@H](Cc1ccccc1)NC(=O)[C@H](CC(=O)OCc1ccccc1)NS(C)(=O)=O` [Example 31C, [2R-(2R*,3S*,6S*)]-N-t-Butyl-2-[2-hydroxy-3-phenylmethyl-4-aza-5-oxo-6-N(methylsulfonyl)amino-7-benzyloxycarbonyl]heptyl benzamide], the IC30 is 1 µg/mL (≈ 1.6 µM).

The same test, now with this note: read-out: Fluorescence Assay IC45.
Turning to `CSCC[C@H](NC(C)=O)C(=O)N[C@@H](Cc1ccccc1)[C@H](O)Cc1ccccc1C(=O)NC(C)(C)C` [Example 21, [2R-(2R*,3S*,6S*)]-N-t-Butyl-2-[2-hydroxy-3-phenylmethyl-4-aza-5-oxo-6-N(ethanoyl)amino-8-methylthio]octyl benzamide], the IC45 turned out to be 1 µg/mL (≈ 1.95 µM).

Staying with this test, now noted: read-out: Fluorescence Assay IC50 (converted).
In general, IC50 refers to the concentration at which inhibition is half-maximal. Regarding `CC(C)(C)NC(=O)c1ccccc1C[C@@H](O)[C@H](Cc1ccccc1)NC(=O)[C@@H](C[S+]([O-])Cc1ccccc1)NS(C)(=O)=O` (stereo partly drawn) [Example 19D, [2R-(2R*,3S*,6S*)]-N-t-Butyl-2-[2-hydroxy-3-phenylmethyl-4-aza-5-oxo-6-N(methylsulfonyl)amine-7-benzylsulfinyl]heptyl benzamide], the IC50 is 2.23 nM.
Turning to `CC(=O)N[C@H](CC(=O)Nc1cnc2ccccc2c1)C(=O)N[C@@H](Cc1ccccc1)[C@H](O)Cc1ccccc1C(=O)NC(C)(C)C` [Example 3, [2R-(2R*, 3S*, 6R*)]-N-t-butyl-2-[2-hydroxy-3-phenylmethyl-4-aza-5-oxo-6-N(ethanoyl)amine-8-oxo-8-N (quinolin-3-yl)amine]octyl benzamide], the half-maximal inhibitory concentration (IC50) is 548 nM.
On to `CCCC(=O)N[C@H](CC(=O)OCc1ccccc1)C(=O)N[C@@H](Cc1ccccc1)[C@H](O)Cc1ccccc1C(=O)NC(C)(C)C` [Example 7, [2R-(2R*, 3S *, 6R*)]-N-t-butyl-2-[2-hydroxy-3-phenylmethyl-4-aza-5-oxo-6-N(butanoyl)amino-7-benzyloxycarbonyl]heptyl benzamide], for which the IC50 is 115 nM.
Turning to `CC(C)(C)NC(=O)c1ccccc1C[C@@H](O)[C@H](Cc1ccccc1)NC(=O)[C@@H](CSc1ccc2ccccc2c1)NC(=O)OC(C)(C)C` [Example 15A, [2R-(2R*,3S*,6S*)]-N-t-Butyl-2-[2-hydroxy-3-phenylmethyl-4-aza-5-oxo-6-N(t-butoxycarbonyl)amino-7-naphth-2-ylthio]heptyl benzamide], the IC50 was more than 1490 nM.
Take `CC(C)(C)NC(=O)c1ccccc1C[C@@H](O)[C@H](Cc1ccccc1)NC(=O)[C@H](CC(N)=O)NS(=O)(=O)c1ccc2ccccc2c1` [Example 34, [2R-(2R*,3S*,6S*)]-N-t-Butyl-2-[2-hydroxy-3-phenylmethyl-4-aza-5-oxo-6-N (naphth-2-ylsulfonyl)amino-7-carbamoyl]heptyl benzamide]: the IC50 is 2.02 nM.
For the molecule `CC(C)(C)NC(=O)c1ccccc1C[C@@H](O)[C@H](Cc1ccccc1)NC(=O)[C@@H](CSc1ccc(F)cc1)NS(C)(=O)=O` [Example 37C, [2R-(2R*,3S*,6S*)]-N-t-Butyl-2-[2-hydroxy-3-phenylmethyl-4-aza-5-oxo-6-N(methylsulfonyl)amino-7-(p-fluorophenylthio)]heptyl benzamide], the IC50 was 1.79 nM.
On the same count and under the same terms, to `CC(C)(C)NC(=O)c1ccccc1C[C@@H](O)[C@H](Cc1ccccc1)NC(=O)[C@@H](CC(=O)OCc1ccccc1)NS(C)(=O)=O` [Example 8A, [2R-(2R*,3S*, 6R*)]-N-t-butyl-2-[2-hydroxy-3-phenylmethyl-4-aza-5-oxo-6-N(methylsulfonyl)amino-7-benzyloxycarbonyl]heptyl benzamide] belongs 3.69 nM.
Take `CC(C)(C)NC(=O)c1ccccc1C[C@@H](O)[C@H](Cc1ccccc1)NC(=O)[C@H](CC(N)=O)NS(=O)(=O)c1ccccn1` [Example 29C, [2R-(2R*,3S*,6S*)]-N-t-Butyl-2-[2-hydroxy-3-phenylmethyl-4-aza-5-oxo-6-N(pyrid-2-ylsulfonyl)amino-7-carbamoyl]heptyl benzamide]: the IC50 was 371 nM.
Take `CC(C)(C)NC(=O)c1ccccc1C[C@@H](O)[C@H](Cc1ccccc1)NC(=O)[C@H](N)CSc1ccc(F)cc1` [Example 37B, [2R-(2R*,3S*,6S*)]-N-t-Butyl-2-[2-hydroxy-3-phenylmethyl-4-aza-5-oxo-6-amino-7-(p-fluorophenylthio)]heptyl benzamide]: the IC50 is 5330 nM.
As for `CC(C)(C)NC(=O)c1ccccc1C[C@@H](O)[C@H](Cc1ccccc1)NC(=O)[C@@H](C[S+]([O-])c1ccc(F)cc1)NS(C)(=O)=O` (stereo partly drawn) [Example 37D, [2R-(2R*,3S*,6S*)]-N-t-Butyl-2-[2-hydroxy-3-phenylmethyl-4-aza-5-oxo-6-N(methylsulfonyl)amino-7-(p-fluorophenylsulfinyl)]heptyl benzamide], the IC50 is 0.158 nM.
Still for that read-out and setting: to `CC(C)(C)NC(=O)c1ccccc1C[C@@H](O)[C@H](Cc1ccccc1)NC(=O)[C@@H](CS(=O)(=O)Cc1ccccc1)NS(C)(=O)=O` [Example 19E, [2R-(2R*,3S*,6S*)]-N-t-Butyl-2-[2-hydroxy-3-phenylmethyl-4-aza-5-oxo-6-N(methylsulfonyl)amino-7-benzylsulfonyl]heptyl benzamide] belongs 4.66 nM.
Same read-out and setting: to `Cn1nnnc1SC[C@@H](NC(=O)OC(C)(C)C)C(=O)N[C@@H](Cc1ccccc1)[C@H](O)Cc1ccccc1C(=O)NC(C)(C)C` [Example 39A, [2R-(2R*,3S*,6S*)]-N-t-Butyl-2-[2-hydroxy-3-phenylmethyl-4-aza-5-oxo-6-N(t-butoxycarbonyl)amino-7-N-(methyl)tetrazolylthio]heptyl benzamide] belongs more than 1600 nM; to `CC(C)(C)NC(=O)c1ccccc1C[C@@H](O)[C@H](Cc1ccccc1)NC(=O)[C@@H](CS(=O)(=O)c1ccccc1)NS(C)(=O)=O` [Example 22D, [2R-(2R*,3S*,6S*)]-N-t-Butyl-2-[2-hydroxy-3-phenylmethyl-4-aza-5-oxo-6-N(methylsulfonyl)amino-7-phenylsulfonyl]heptyl benzamide], 2.54 nM.

The same test, now with this note: read-out: Fluorescence Assay IC52.
As to `CC(C)(C)NC(=O)c1ccccc1C[C@@H](O)[C@H](Cc1ccccc1)NC(=O)[C@H](CC(=O)OCc1ccccc1)NC(=O)C(F)(F)F` [Example 41, [2R-(2R*,3S*,6S*)]-N-t-Butyl-2-[2-hydroxy-3-phenylmethyl-4-aza-5-oxo-6-N(trifluoromethylcarbonyl)amino-7-benzyloxycarbonyl]heptyl benzamide], the IC52 was found to be 0.02 µg/mL.
